# Where a name gives a salt, the structure may show the parent alone.
# Target: T1, mutant CFTR (Homo sapiens, UniProt P13569, DEL508-508)
# T1 construct: expressed in transfected cells
# Experiment: Fluorescence (HS-YFP) assay for CFTR activity, corrector assay
# Format: cell-based
# Settings: CFBE41o- and FRT cells with stable expression of mutant CFTR, read-out: activity (EC50)
# T1 sequence (P13569 with tags, fused parts or gaps DEL508-508): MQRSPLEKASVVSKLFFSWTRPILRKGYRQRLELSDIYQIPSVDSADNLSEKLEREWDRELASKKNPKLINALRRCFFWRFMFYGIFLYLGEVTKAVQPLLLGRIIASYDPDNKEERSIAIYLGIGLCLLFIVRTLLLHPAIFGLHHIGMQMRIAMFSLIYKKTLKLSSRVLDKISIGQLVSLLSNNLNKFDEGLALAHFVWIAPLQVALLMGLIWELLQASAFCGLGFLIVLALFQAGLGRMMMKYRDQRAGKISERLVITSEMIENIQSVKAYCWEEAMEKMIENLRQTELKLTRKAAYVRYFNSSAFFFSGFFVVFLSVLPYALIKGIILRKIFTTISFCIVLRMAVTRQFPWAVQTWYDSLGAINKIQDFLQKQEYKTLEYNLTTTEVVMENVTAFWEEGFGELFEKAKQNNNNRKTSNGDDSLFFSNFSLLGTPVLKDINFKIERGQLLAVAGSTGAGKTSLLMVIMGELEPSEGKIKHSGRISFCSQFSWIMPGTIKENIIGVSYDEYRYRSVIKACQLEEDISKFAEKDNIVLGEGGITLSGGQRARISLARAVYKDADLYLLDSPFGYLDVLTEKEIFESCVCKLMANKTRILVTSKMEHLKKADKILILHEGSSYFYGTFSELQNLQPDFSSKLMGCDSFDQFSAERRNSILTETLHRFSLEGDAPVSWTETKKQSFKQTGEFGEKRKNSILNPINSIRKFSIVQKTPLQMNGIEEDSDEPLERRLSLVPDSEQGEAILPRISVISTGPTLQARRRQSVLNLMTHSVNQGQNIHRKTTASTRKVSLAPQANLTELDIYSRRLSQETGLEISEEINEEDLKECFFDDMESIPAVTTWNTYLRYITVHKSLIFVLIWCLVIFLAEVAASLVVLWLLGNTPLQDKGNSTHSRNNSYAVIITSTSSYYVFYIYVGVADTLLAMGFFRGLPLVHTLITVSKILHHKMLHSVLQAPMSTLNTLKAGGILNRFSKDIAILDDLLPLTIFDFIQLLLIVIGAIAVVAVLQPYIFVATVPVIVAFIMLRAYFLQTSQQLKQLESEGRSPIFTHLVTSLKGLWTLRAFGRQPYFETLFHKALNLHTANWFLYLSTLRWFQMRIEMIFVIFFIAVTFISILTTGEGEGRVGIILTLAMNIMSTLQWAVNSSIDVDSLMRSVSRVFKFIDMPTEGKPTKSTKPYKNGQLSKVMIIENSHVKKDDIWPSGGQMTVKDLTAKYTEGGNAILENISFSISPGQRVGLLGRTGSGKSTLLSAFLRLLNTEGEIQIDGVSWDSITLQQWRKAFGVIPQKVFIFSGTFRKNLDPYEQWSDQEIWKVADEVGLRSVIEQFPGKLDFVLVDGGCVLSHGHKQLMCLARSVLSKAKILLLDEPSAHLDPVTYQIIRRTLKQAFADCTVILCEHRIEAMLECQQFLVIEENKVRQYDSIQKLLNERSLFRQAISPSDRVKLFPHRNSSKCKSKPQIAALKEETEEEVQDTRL
row,SMILES,EC50 [µM]
1,"CN(C(=O)c1cccc(-n2nc(C(F)(F)F)c3c2C(Oc2ccc(C(=O)O)cc2)CNC3)c1)c1ccc2c(c1)OC(F)(F)O2 (racemic) [Compound 273, 4-[[1-[3-[(2,2-Difluoro-1,3-benzodioxol-5-yl)-methyl-carbamoyl]phenyl]-3-(trifluoromethyl)-4,5,6,7-tetrahydropyrazolo[4,3-c]pyridin-7-yl]oxy]benzoic acid hydrochloride]",< 1
2,"CN(C(=O)c1cccc(-n2nc(C(F)(F)F)c3c2CCN(C(=O)C(C)(C)O)C3)c1)c1ccc2c(c1)OCO2 [Compound 058, N-(1,3-Benzodioxol-5-yl)-3-[5-(2-hydroxy-2-methyl-propanoyl)-3-(trifluoromethyl)-6,7-dihydro-4H-pyrazolo[4,3-c]pyridin-1-yl]-N-methyl-benzamide]",< 1
3,"CN(C(=O)c1cccc(-n2nc(C(F)(F)F)c3c2C(Oc2cc(C(=O)O)ccn2)CCC3)c1)c1ccc2c(c1)OC(F)(F)O2 (single isomer, unassigned) [Compound 198, (R) or (S)-2-[[1-[3-[(2,2-Difluoro-1,3-benzodioxol-5-yl)-methyl-carbamoyl]phenyl]-3-(trifluoromethyl)-4,5,6,7-tetrahydroindazol-7-yl]oxy]pyridine-4-carboxylic acid]",< 1
4,"CN(C(=O)c1cccc(-n2nc(C(F)(F)F)c3c2CCNC3)c1)c1ccc2c(c1)OCO2 [Compound 002, N-(1,3-Benzodioxol-5-yl)-N-methyl-3-[3-(trifluoromethyl)-4,5,6,7-tetrahydropyrazolo[4,3-c]pyridin-1-yl] benzamide hydrochloride]",< 1
5,"CN(C(=O)c1cccc(-n2nc(C(F)(F)F)c3c2C[C@H]2CC[C@@H]3N2C(=O)C(C)(C)C)c1)c1ccc2c(c1)OCO2 (single isomer, unassigned) [Compound 087, (4R,7S)- or (4S,7R)—N-(Benzo[d][1,3]dioxol-5-yl)-N-methyl-3-[(9-pivaloyl-3-(trifluoromethyl)-5,6,7,8-tetrahydro-4,7-epiminocyclohepta[c]pyrazol-1(4H)-yl)]benzamide]",< 1
6,"Cc1nn(-c2cccc(C(=O)N(C)c3ccc4c(c3)OCO4)c2)c2c1CCCC2 [Compound 132, N-(1,3-Benzodioxol-5-yl)-N-methyl-3-(3-methyl-4,5,6,7-tetrahydroindazol-1-yl)benzamide]",1 to 2
7,"COc1cncc(N(C)C(=O)c2cccc(-n3nc(C(F)(F)F)c4c3C(Oc3ccc(C(=O)O)cc3)CCC4)c2)c1 (stereo not drawn) [Compound 166, 4-[[1-[3-[(5-Methoxy-3-pyridyl)-methyl-carbamoyl]phenyl]-3-(trifluoromethyl)-4,5,6,7-tetrahydroindazol-7-yl]oxy]benzoic acid]",< 1
8,"CN(C(=O)c1cccc(-n2nc(C(F)(F)F)c3c2CCN(S(=O)(=O)c2ccc(C(=O)O)cc2)C3)c1)c1ccc2c(c1)OCO2 [Compound 057, 4-[[1-[3-[1,3-Benzodioxol-5-yl(methyl)carbamoyl]phenyl]-3-(trifluoromethyl)-6,7-dihydro-4H-pyrazolo[4,3-c]pyridin-5-yl]sulfonyl]benzoic acid]",1 to 2
9,"Cc1nc(S(=O)(=O)N2CCc3c(c(C(F)(F)F)nn3-c3cccc(C(=O)N(C)c4ccc5c(c4)OCO5)c3)C2)cn1C [Compound 064, N-(1,3-Benzodioxol-5-yl)-3-[5-(1,2-dimethylimidazol-4-yl)sulfonyl-3-(trifluoromethyl)-6,7-dihydro-4H-pyrazolo[4,3-c]pyridin-1-yl]-N-methyl-benzamide]",< 1
10,"CN(C(=O)c1cccc(-n2nc(C(F)(F)F)c3c2C(Oc2cncc(C(=O)O)c2)COC3)c1)c1ccc2c(c1)OC(F)(F)O2 (racemic) [Compound 210, 5-[[1-[3-[(2,2-Difluoro-1,3-benzodioxol-5-yl)-methyl-carbamoyl]phenyl]-3-(trifluoromethyl)-6,7-dihydro-4H-pyrano[4,3-c]pyrazol-7-yl]oxy]pyridine-3-carboxylic acid]",1 to 2
11,"CN(C(=O)c1cccc(-n2nc(C(F)(F)F)c3c2C(Oc2cccc(C(=O)O)c2)CCC3)c1)c1ccc2c(c1)OC(F)(F)O2 (single isomer, unassigned) [Compound 190, (R) or (S)-3-[[1-[3-[(2,2-Difluoro-1,3-benzodioxol-5-yl)-methyl-carbamoyl]phenyl]-3-(trifluoromethyl)-4,5,6,7-tetrahydroindazol-7-yl]oxy]benzoic acid]",< 1
12,"Cc1n[nH]c2ncc(NC(=O)c3cccc(-n4nc(C(F)(F)F)c5c4CCN(C(=O)C(C)(C)C)C5)c3)cc12 [Compound 079, 3-[5-(2,2-Dimethylpropanoyl)-3-(trifluoromethyl)-6,7-dihydro-4Hpyrazolo[4,3-c]pyridin-1-yl]-N-(3-methyl-1H-pyrazolo[3,4-b]pyridin-5-yl)benzamide]",> 2
13,"CC(C)c1nn(-c2cccc(C(=O)N(C)c3ccc4c(c3)OC(F)(F)O4)c2)c2c1CCCC2 [Compound 102, N-(2,2-difluoro-1,3-benzodioxol-5-yl)-3-(3-isopropyl-4,5,6,7-tetrahydroindazol-1-yl)-N-methyl-benzamide]",1 to 2
14,"Cc1nc2ccc(N(C)C(=O)c3cccc(-n4nc(C(F)(F)F)c5c4C(Oc4ccc(C(=O)O)cc4)CCC5)c3)cn2n1 (stereo not drawn) [Compound 172, 4-[[1-[3-[Methyl-(2-methyl-[1,2,4]triazolo[1,5-a]pyridin-6-yl)carbamoyl]phenyl]-3-(trifluoromethyl)-4,5,6,7-tetrahydroindazol-7-yl]oxy]benzoic acid]",< 1
15,"O=C(O)c1ccc(OC2CCCc3c(C(F)(F)F)nn(-c4cccc(C(=O)Nc5ccc6c(c5)OC(F)(F)O6)c4)c32)cc1 (stereo not drawn) [Compound 253, 4-[[1-[3-[(2,2-Difluoro-1,3-benzodioxol-5-yl)carbamoyl]phenyl]-3-(trifluoromethyl)-4,5,6,7-tetrahydroindazol-7-yl]oxy]benzoic acid]",> 2
16,"COC(=O)c1cccc(S(=O)(=O)N2CCc3c(c(C(F)(F)F)nn3-c3cccc(C(=O)N(C)c4ccc5c(c4)OCO5)c3)C2)c1 [Compound 059, Methyl 3-[[1-[3-[1,3-benzodioxol-5-yl(methyl)carbamoyl]phenyl]-3-(trifluoromethyl)-6,7-dihydro-4H-pyrazolo[4,3-c]pyridin-5-yl]sulfonyl]benzoate]",< 1
17,"CN1CCOc2c(c(C(F)(F)F)nn2-c2cccc(C(=O)N(C)c3ccc4c(c3)OCO4)c2)C1 [Compound 017, N-(1,3-Benzodioxol-5-yl)-N-methyl-3-[5-methyl-3-(trifluoromethyl)-6,7-dihydro-4H-pyrazolo[4,3-f][1,4]oxazepin-1-yl]benzamide]",< 1
18,"CN(C(=O)c1cccc(-n2nc(C(F)(F)F)c3c2C(Oc2ccc(C(=O)O)nc2)CCC3)c1)c1ccc2c(c1)OC(F)(F)O2 (single isomer, unassigned) [Compound 186, (R) or (S)-5-[[1-[3-[(2,2-Difluoro-1,3-benzodioxol-5-yl)-methyl-carbamoyl]phenyl]-3-(trifluoromethyl)-4,5,6,7-tetrahydroindazol-7-yl]oxy]pyridine-2-carboxylic acid]",< 1
19,"Cc1nc2cc(F)c(NC(=O)c3cccc(-n4nc(C(F)(F)F)c5c4CCN(C)C5)c3)cc2o1 [Compound 047, N-(5-Fluoro-2-methyl-1,3-benzoxazol-6-yl)-3-[5-methyl-3-(trifluoromethyl)-6,7-dihydro-4H-pyrazolo[4,3-c]pyridin-1-yl]benzamide]",> 2
20,"CN(C(=O)c1cccc(-n2nc(C(F)(F)F)c3c2C(Oc2ccc(C(=O)O)cc2)CCC3)c1)c1cncc(OC(F)F)c1 (racemic) [Compound 267, 4-[[1-[3-[[5-(Difluoromethoxy)-3-pyridyl]-methyl-carbamoyl]phenyl]-3-(trifluoromethyl)-4,5,6,7-tetrahydroindazol-7-yl]oxy]benzoic acid]",1 to 2
21,"CN(C(=O)c1cccc(-n2nc(C(F)(F)F)c3c2C(Oc2ccc(C(=O)O)cc2)CCC3)c1)c1ccnc(OC(F)F)c1 (single isomer, unassigned) [Compound 289, (S) or (R)-4-[[1-[3-[[2-(Difluoromethoxy)-4-pyridyl]-methyl-carbamoyl]phenyl]-3-(trifluoromethyl)-4,5,6,7-tetrahydroindazol-7-yl]oxy]benzoic acid]",< 1
22,"COc1ccc(NC(=O)c2cccc(-n3nc(C(F)(F)F)c4c3CCN(C(=O)C(C)(C)C)C4)c2)cn1 [Compound 080, 3-[5-(2,2-Dimethylpropanoyl)-3-(trifluoromethyl)-6,7-dihydro-4Hpyrazolo[4,3-c]pyridin-1-yl]-N-(6-methoxy-3-pyridyl)benzamide]",> 2
23,"CN(C(=O)c1cccc(-n2nc(C(F)(F)F)c3c2C(Oc2ccc(C(=O)O)nc2)CCC3)c1)c1ccc2c(c1)OC(F)(F)O2 (single isomer, unassigned) [Compound 185, (S) or (R)-5-[[-1-[3-[(2,2-Difluoro-1,3-benzodioxol-5-yl)-methyl-carbamoyl]phenyl]-3-(trifluoromethyl)-4,5,6,7-tetrahydroindazol-7-yl]oxy]pyridine-2-carboxylic acid]",< 1
24,"CN(C(=O)c1cccc(-n2nc(C(F)(F)F)c3c2C(Oc2ccc(C(=O)O)nc2)CCC3)c1)c1ccc2c(c1)OC(F)(F)O2 (stereo not drawn) [Compound 164, 5-[[1-[3-[(2,2-Difluoro-1,3-benzodioxol-5-yl)-methyl-carbamoyl]phenyl]-3-(trifluoromethyl)-4,5,6,7-tetrahydroindazol-7-yl]oxy]pyridine-2-carboxylic acid]",< 1
25,"Cc1nc2cc(F)c(N(C)C(=O)c3cccc(-n4nc(C(F)(F)F)c5c4C(Oc4ccc(C(=O)O)cc4)CCC5)c3)cc2o1 (stereo not drawn) [Compound 153, 4-[[1-[3-[(5-Fluoro-2-methyl-1,3-benzoxazol-6-yl)-methyl-carbamoyl]phenyl]-3-(trifluoromethyl)-4,5,6,7-tetrahydroindazol-7-yl]oxy]benzoic acid]",< 1
26,"COc1cc(N(C)C(=O)c2cccc(-n3nc(C(F)(F)F)c4c3C(Oc3ccc(C(=O)O)cc3)CCC4)c2)ccn1 (racemic) [Compound 316, 4-[[1-[3-[(2-methoxy-4-pyridyl)-methyl-carbamoyl]phenyl]-3-(trifluoromethyl)-4,5,6,7-tetrahydroindazol-7-yl]oxy]benzoic acid]",1 to 2
27,CN(C(=O)c1cccc(-n2nc(C(F)(F)F)c3c2C(Oc2ccc(C(=O)O)cc2)CCC3)c1)c1ccnc(OC(F)F)c1 (racemic) [Compound 268],< 1

# Reference: patent publication US10968225B2, “Compounds and compositions for the treatment of cystic fibrosis” (Fondazione Istituto Italiano Di Tecnologia, priority 2017, dated 2021)
